Results on one compound are retold here after patent US20240252463A1, “METHODS OF TREATING FIBROTIC PATHOLOGIES” (Mayo Foundation for Medical Education and Research, priority 2018, published 2024).

The subject of assay [1] is αSMA. Description: αSMA intensity (fibroblast activation) in IPF patient-derived lung fibroblasts + TGFβ. Type of assay: cell-based, human. Conditions: Homo sapiens, SMA, 1 μM + TGFβ, treated for 72 hours.
The test system of assay [2] is human dermal fibroblasts. Description: Profibrotic gene expression in human dermal fibroblasts +/- TGFβ. It counts as cell-based. Conditions: 24 hours +/− 2 ng/mL TGFβ. On the procedure: Human dermal fibroblasts treated for 24 hours+/−2 ng/mL TGFβ and D1 agonists: DHX and A68930 prior to RNA isolation. N=2. For all other in vitro experiments, cells were treated as indicated prior to RNA isolation using RNeasy Plus Mini Kit (Qiagen) according to manufacturer's instructions. Isolated RNA (250 ng) was then used to synthesize cDNA using SuperScript VILO (Invitrogen). Quantitative PCR was performed using FastStart Essential DNA Green Master (Roche) and analyzed using a LightCycler 96 (Roche). Data are expressed as a fold change by ΔΔCt relative to GAPDH. For in vivo experiments, tissue was immediately frozen, and stored at −80° C. RNA isolation, cDNA synthesis, and qPCR analysis were performed as above.

The subject of assay [3] is YAP/TAZ target genes. The experiment in a line: YAP/TAZ target gene expression in flow-sorted lung cells of bleomycin-injured mice. It counts as in vivo, mouse. Conditions: bleomycin day 10, two doses of DHX (2 and 24 hours prior to collecting lungs). The protocol: 29A. Two groups of mice were injured intratracheally with bleomycin at day 0, on day 10 one group received two doses of DHX (2 and 24 hours prior to collecting lungs) and the other received vehicle control. On day 11 lungs were collected to flow sort fibroblasts, epithelial, and endothelial cells. 29B. Changes in RNA expression of YAP/TAZ target genes from freshly isolated cells.
Cell Sorting: FACS: PBS perfused mouse lungs were finely minced with a razor blade in a 100 mm petri dish in 1 mL of cold DMEM medium containing 0.2 mg ml^−1 Liberase DL (Roche) and 100 U ml^−1 DNase I (Roche). The mixture was transferred to 15 ml tubes and incubated at 37° C. for 30 min in a water bath. Enzymatic digestion was inactivated by adding DMEM medium containing 10% fetal bovine serum. The cell suspension was passed once through a 40 µm cell strainer (Fisher) to remove multicellular debris. Cells were then centrifuged at 1,300 r.p.m. at 4° C. for 10 min, washed once in PBS and resuspended in 0.2 ml of FACS buffer (1% BSA, 0.5 μM EDTA pH 7.4 in PBS). The single cell suspension was then incubated with anti-CD45-PerCp-Cy5.5, anti-CD31-PE, anti-PDGFRα-APC and anti-EpCAM-BV421 antibodies (1:200) (Biolegend) for 20 min on ice. After incubation, cells were washed with ice-cold FACS buffer and resuspended in 1 ml of FACS buffer. FACS sorting was conducted using a BD FACS Aria II (BD Biosciences). […]

The structures appear in SMILES notation. Like-named read-outs stand apart in the source and are kept apart here.

Turning to `Oc1cc2c(cc1O)[C@H]1c3ccccc3CN[C@@H]1CC2` (racemic) [Dihydrexidine, dihydrexidine], the activity at 1 µM in assay [1] (patient sample IPF-1, read-out: αSMA intensity (% of DMSO control) IPF-1) was determined as 4.98%; in assay [1] (patient sample IPF-2, read-out: αSMA intensity (% of DMSO control) IPF-2), 0.0469%; in assay [1] (patient sample IPF-3, read-out: αSMA intensity (% of DMSO control) IPF-3), 0.513%; in assay [1] (patient sample IPF-4, read-out: αSMA intensity (% of DMSO control) IPF-4), 12%. Besides, the “profibrotic gene expression in human dermal fibroblasts” value in assay [2] is “blocks profibrotic gene expression”. Besides, the “expression of YAP/TAZ target genes in freshly isolated lung fibroblasts, epithelial and endothelial cells” value in assay [3] is given as “selectively blocks expression of YAP/TAZ target genes in lung fibroblasts in vivo”.
